From patent US5114960A, “Substituted isoxazole derivatives” (Hoffmann-La Roche Inc., priority 1989, dated 1992)

Tested on: IL-1-dependent PGE^2
Assay: IL-1-dependent PGE2 inhibition test in human rheumatoid synovial cell lines
Type: cell-based
Conditions: recombinant human IL-1 alpha 0.1 ng/ml, 7 hours, 37° C., read-out: IC50 (concentration reducing PGE2 release to 50% of IL-1-stimulated control values)
Description: IL-1-dependent PGE ^2 inhibition test:
Human rheumatoid synovial cell lines, prepared by the enzymatic dissociation of fresh rheumatoid tissue, were maintained by culture in Dulbecco's modified Eagle medium containing 25 mM HEPES, 10% foetal calf serum, 100 units of penicillin per ml and 100 μg of streptomycin per ml (culture medium). Standard incubation conditions were 37° C. in a water-saturated atmosphere containing 95% air and 5% CO2.
Semi-confluent cultures at the third to eighteenth passage were detached by trypsin treatment and resuspended in culture medium at […]. The cell suspension was distributed to 200 μl aliquots into the wells of a 96-well microtitration plate and incubated for 18 hours at 37° C. to allow adhesion of the cells.
Test substances were dissolved in equimolar sodium hydroxide solution and double-dilution series were prepared in sterile water. If the test substances is a compound of formula I in which one of R^1 and R^2 is alkoxycarbonyl and the other hydrogen, it is treated with hog liver esterase prior to carrying out the test. The medium was aspirated from the microcultures of the synovial cells. 170 μl of culture medium were added and the cultures were treated with 20 μl of test substances and then 10 μl of recombinant human IL-1 alpha culture medium to give a final concentration of 0.1 ng/ml. All treatments were carried out in quadruplet. After incubation for 7 hours, samples of the culture media were removed and stored at -20° C. prior to assay for PGE2. The PGE2 content was determined using a [^I 125]R1A kit obtained from NEN Products.
PGE2 concentration detected in unstimulated controls were subtracted from values determined in all stimulated cultures and results were transformed to percent of IL-1-stimulated control PGE2 values. IC50 values were determined by interpolation as those concentrations reducing PGE2 release to 50% of IL-1-stimulated control values.

SMILES | IC50
CO[C@@H]1CC[C@@H](C(=O)O)Cc2onc(-c3ccc(Cl)cc3)c21 (relative stereo) [Compound D, trans-3-(4-Chlorophenyl)-5,6,7,8-tetrahydro-4-methoxy-4H-cyclohept[d]isoxazole-7-carboxylic acid] | 8 µM
C[C@H]1CC[C@H](C(=O)O)Cc2onc(-c3ccc(Cl)cc3)c21 (relative stereo) [Compound E, trans-3-(4-Chlorophenyl)-5,6,7,8-tetrahydro-4-methyl-4H-cyclohept[d]isoaxazole-7-carboxylic acid] | 0.04 µM
O=C(O)C1CCc2onc(-c3ccc(Cl)cc3)c2CC1 (single isomer, unassigned; (+)) [Compound A, (+)-3-(4-Chlorophenyl)-5,6,7,8-tetrahydro-4H-cyclohept[d]isoxazole-6-carboxylic acid] | 2 µM
O=C(O)[C@H]1[C@H]2CCc3c(-c4ccc(Cl)cc4)noc3[C@H]21 (relative stereo) [Compound C, endo-3-(4-Chlorophenyl)-5,5a,6,6a-tetrahydro-4H-cyclopropa[g]-1,2-benzisoxazole-6-carboxylic acid] | 0.5 µM
CCC1(C(=O)O)C2CCc3c(-c4ccc(Cl)cc4)noc3C21 (stereo not drawn) [Compound F, endo-3-(4-Chlorophenyl)-6-ethyl-5,5a,6,6a-tetrahydro-4H-cyclopropa[g]-1,2-benzisoxazole-6-carboxylic acid] | 0.7 µM
O=C(O)C1CCCc2c(-c3ccc(Cl)cc3)noc2C1 (stereo not drawn) [Compound B, 3-(4-Chlorophenyl)-5,6,7,8-tetrahydro-4H-cyclohept[d]isoxazole-7-carboxylic acid] | 15 µM
